Test system: Ebola virus
Set-up: species or system mice
Conditions: mouse, in vivo

Structure (SMILES) | protection [%] | effectiveness of single dose 4 days after challenge
Cc1cc(NCCCN(C)C)c2ccc3c(ccc4c(NCCCN(C)C)cc(C)nc43)c2n1.Cl.Cl.Cl.Cl [Compound 365, Quino[8,7-h]quinoline-1,7-diamine,N,N′-bis[3-(dimethylamino)propyl]-3,9-dimethyl-tetrahydrochloride] | 100 | –
N=C(N)c1ccc2oc(C=Cc3nc4ccc(C(=N)N)cc4[nH]3)cc2c1 [Compound 723, 2-[2-(5-carbamimidoyl-benzofuran-2-yl)-vinyl]-3H-benzoimidazole-5-carboxamidine] | – | effectiveness

From patent publication US8207209B2, “Methods of inhibiting viral infection” (priority 2007, dated 2012)
